From patent US8211883B2, “Topical delivery of phthalocyanines” (priority 2004, dated 2012)
Marks after values point to notes of the source that are not given here.

Legend:
[1] = tested on: Chinese hamster V79-379 lung fibroblasts; assay: Uptake of phthalocyanines into V79 cells; conditions: for n Moles/10^6 Cells/μM (composite uptake value): V79 cells, average of all data, asterisk: listed value is for 1 μM, average would be higher
Protocol: Chinese hamster V79-379 lung fibroblasts were grown in monolayer culture in McCoy's 5A medium (Gibco Laboratories, Grand Island, N.Y.) augmented with 10% calf serum and buffered with 20 mM HEPES (pH 7.4).
Total uptake was determined by scraping the phthalocyanine-treated monolayer, collecting the cells on a glass-fiber filter, and extracting the phthalocyanine in ethanol, as previously described by Ramakrishnan, et al., 1989. (Ramakrishnan, N., M. E. Clay, M. F. Horng, A. R. Antunez, & H. H. Evans, “DNA Lesions and DNA Degradation in Mouse Lymphoma L5178Y Cells After Photodynamic Treatment Sensitized by Chloroaluminum Phthalocyanine”, Photochem. Photobiol, in press, 1989). The amount of drug was determined by absorption at 674 nm and expressed relative to the number of cells, as measured in a Coulter cell counter on an aliquot of the cell population. Controls included cells not treated with drug, medium alone, and drug-containing medium without cells.
The cells were treated with 1 μM AlPcCl (from Eastman Kodak, Rochester, N.Y.) or with phthalocyanine compositions I-VI (0.5-1.0 μM final concentration in the medium) for 18 hours by adding the appropriate volume of a 1.0 mM stock solution in dimethylformamide (DMF) to the culture medium. The growth medium was replaced with 4 mL Hank's balanced salt solution (HBSS), and the cells were irradiated. The light source was a 500 W tungsten-halogen lamp located approximately 29 inches below the surface of a glass exposure tray. The visible light administered to the cells was filtered to allow passage of only that portion of the visible spectrum above 600 nm (Lee Primary red filter No. 106, Vincent Lighting, Cleveland, Ohio). The fluence rate was approximately 0.074 kJ/m^2/s at the level of the cell monolayer.
V79 cells Chinese hamster lung fibroblasts were cultured using the cell culture methods described above. The phthalocyanines listed in table 2 were added to the cultures typically at concentrations of 1 μM, 2 μM, and/or 4 μM and incubated for 18 hours, after which aliquots of the cells were counted and other aliquots were collected on a glass fiber filter. When the filters were dry, the phthalocyanines were extracted into ethanol and the absorption determined at the peak wavelength, usually 668 nm. Values were converted to nmoles taken up by 10^6 cells, using an extinction coefficient of 2.93×10^5.

[2] = tested on: Chinese hamster V79-379 lung fibroblasts; assay: Clonogenic cell survival of V79 cells after photodynamic treatment; format: cell-based; conditions: for LD 90 (light dosage that kills 90% of cells): 0.5 μM, 18 hours, 675 nm red light, VII# preplated data only, XXI* not totally soluble at 0.5 mM
Protocol: Cells were irradiated at a density of approximately 2×10^6 per 25 cm^2 flask. Immediately after irradiation, the cell monolayer was treated with trypsin, and appropriate aliquots were plated in triplicate to give 100 to 200 colonies in each 10-cm Petri dish. Cell survival was determined by the ability of the cells to form colonies containing at least 50 cells. The response of cells treated with 1 μM AlPcCl and light was compared in each experiment.
Photocytotoxicity of the phthalocyanines compounds I to VI was also assessed by clonogenic assay (Table 1, FIG. 1). In all experiments, 1 μM AlPcCl was included for comparison purposes. From the survival curves (FIG. 1), the fluence reducing the cell survival to 10% (F10) was obtained. The ratio of the F10 for AlPcCl and the F10 for the test compound is recorded in Table 1. Compounds I and II appear to be nearly as efficient photosensitizers as AlPcCl, while compound IV (assayed at half the concentration) was almost twice as efficient as the standard AlPcCl. […] However, in spite of the low efficiency of compound V in inhibiting cell growth, survival measurements were made for this compound, because it was taken up into V79 cells somewhat more efficiently than compounds III and VI.
In order to take differences in cellular uptake into consideration in the assessment of the relative efficiency of these phthalocyanines as photosensitizers of V79 cells, the survival data were replotted against the product of intracellular phthalocyanine concentration and light fluence (FIG. 2). From these curves, the product of intracellular concentration and light fluence reducing survival to 10% (CF10) was obtained, and comparisons of the values for AlPcCl and the test compounds are recorded in Table 1. By this and the other criteria, compound IV appears to be the most efficient photosensitizer. However, when consideration is given to the lesser cell uptake of compound V, it appears to be about as strong a photosensitizer as compound IV.
Using the cell culture methods described above, V79 cells Chinese hamster lung fibroblasts were treated with either 0.5 or 1.0 μM of the phthalocyanines listed in Table 3. About 18 hours thereafter, the cells were irradiated with increasing doses of 675 nm broad band red light from a 500 W tungsten-halogen lamp fitted with a 600 nm high pass filter, to determine the light dosage that would kill 90% of the phthalocyanine treated cells. Where 90% of the cells were not killed, the maximum percent of cells killed were determined, (expressed as % survival) and the related light dosage recorded.

L5178Y cells = assay: Induction of apoptosis (DNA ladder) in L5178Y cells after PDT; format: cell-based, Mouse; conditions: for C × F Ld90, Minimum Demonstrated Condition to Induce Apoptosis: product of concentration and fluence
Protocol: The aliquots were plated in sufficient numbers to produce 50-200 colonies. The dishes were kept in an incubator at 37° C. in an atmosphere of 5% CO2 and 95% air for 10-14 days to allow viable cells to form colonies. Colonies were counted by eye. […] The plating efficiencies of the treated cells are normalized to the plating efficiencies of control cells in each experiment.
Cells were treated with various concentrations of the compounds listed in the table and various light fluences. DNA gels were prepared and examined for the characteristic “ladder” pattern of DNA fragments. For each Pc, the minimum total PDT dose tested (calculated as the product of the minimum phthalocyanine concentration and the minimum fluence) which produced visible DNA fragments is recorded. […] PcXVIII was also added at 0.5 and 1.0 μM.

[3] = tested on: RIF-1 (radiation-induced fibrosarcoma) tumors; assay: PDT of RIF-1 implanted tumors; format: in vivo, C3H/HeN mice; set-up: key to Tumor Responses at 24 hours: complete: no evidence of any tumor mass in any animal; only the scar from the photodynamic therapy was evident.; near complete: evidence of any tumor mass in four or five animals; only some tumor mass in one or two animals.; substantial: a significant tumor shrinkage occurred in all animals. In some animals the tumor response was complete, yet in others the response was not complete.; moderate: some tumor shrinkage was evident in some animals. In animals with some tumor shrinkage, scar formation was evident.; slight: some tumor decrease occurred in one or two mice; conditions: 675 nm; for Doubling Time of Initial Tumor Volume after PDT: controls 4 days
Protocol: The relative effectiveness at reducing tumor volume of selected phthalocyanine compounds at a given dosage was compared in vivo. RIF-1, i.e., radiation-induced fibrosarcoma, tumors were implanted into the backs of C3H/HeN mice. One tumor was implanted per mouse. Each of the phthalocyanine compounds listed in Table 7 was sonicated and vortexed in corn oil to produce a suspension. When the tumors reached […] in diameter and 2-3 mm in thickness, each mouse received 1 mg/kg in 0.1 mL of the corn oil, of the phthalocyanine suspension. For comparison, select mice received a conventional photosensitizer; either 5 mg/kg of chloroaluminum phthalocyanine tetrasulfonate, herein also referred to as “AlPcTS” in phosphate buffered saline or 5 mg/kg of Photofrin®-II in 5% dextrose. Twenty-four hours after the photosensitizers were administered, the tumors were irradiated with visible radiation delivered by an argon-pumped dye laser. The mice that received a phthalocyanine photosensitizer received light having a wavelength of 675 nm and the mice that received the Photofrin® II photosensitizer received light having a wavelength of 630 nm. Each tumor received 135 J/cm^2 of radiation. Tumor size was measured every day using calipers. The initial tumor volume was 50±10 mm^3. Tumor volume was calculated according to the hemiellipsoid model by the formula: V=½(4π)/3×(½×(w/2))×h
• complete—no evidence of any tumor mass in any animal; only the scar from the photodynamic therapy was evident. • near complete—evidence of […] in four or five animals; only some tumor mass in one or two animals. • substantial—a significant tumor shrinkage occurred in all animals. In some animals the tumor response was complete, yet in others the response was not complete. • moderate—some tumor shrinkage was evident in some animals. In animals with some tumor shrinkage, scar formation was evident. • slight—some tumor decrease occurred in one or two mice.

[4] = tested on: Mouse lymphoma L5178y-R cells; assay: Clonogenic cell survival of PDT-treated LY-R cells; format: cell-based; conditions: 0.5 μM
Protocol: Mouse lymphoma L5178y-R (hereinafter also referred to as “LY-R”) cells were grown in suspension culture as described in Ramakrishnan N., Oleinick, N. L. Clay, M. E., Homg, M. F., Antunez, A. R., and Evans H. H., Photochem. Photobiol. 50, 373-378, 1989 and Agarwal, M. L., Clay, M. E., Harvey, E. J., Evans, H. H., Antunez, A. R., and Oleinick, N. L., Cancer Res., 51, 5993-5996, 1991.
The cells were used while in exponential growth. Stock solutions of either 0.5 or 1 mM of PcIV, PcXII, PcX, PcXVIII were prepared in dimethylformamide unless otherwise indicated and added to the 10 mL medium at a rate of 1 μL per mL. After allowing 18 hours for uptake of the phthalocyanine into the cells, the flasks containing the cultures were placed on a glass exposure tray above a 500-W tungsten-halogen lamp. The exposure tray was fitted with a 600-nm high-pass filter. Flasks were exposed to various fluences of red light (up to 30 kJ/m^2) at a fluence rate of approximately 74 W/m^2). After irradiation, the cells were collected by centrifugation.
For measurement of clonogenic cell survival, aliquots were plated in medium containing soft agar as described in Ramakrishnan N., Oleinick, N. L. Clay, M. E., Homg, M. F., Antunez, A. R., and Evans H. H., Photochem. Photobiol. 50, 373-378, 1989. The aliquots were plated in sufficient numbers to produce 50-200 colonies. The dishes were kept in an incubator at 37° C. in an atmosphere of 5% CO2 and 95% air for 10-14 days to allow viable cells to form colonies. Colonies were counted by eye. Controls treated with the phthalocyanine alone had plating efficiencies of about […]. The plating efficiencies of the treated cells are normalized to the plating efficiencies of control cells in each experiment. For measurement of the induction of apoptosis, DNA was isolated from the treated and control cells 2 hours after photodynamic therapy, subjected to electrophoresis on 1.5% agarose, stained with ethidium bromide, and visualized by UV transillumination, as described in Agarwal et al. The results are shown in Tables 4, 5 and 6 and in FIG. 3.

[5] = 1 mg/kg in corn oil, 135 J/cm^2, light 24 h after dosing
[6] = 1 mg/kg in corn oil, 135 J/cm^2
[7] = 5 mg/kg in phosphate buffered saline, 135 J/cm^2

Molecule: C[Si](C)(CCCCNS(C)(=O)=O)O[Si]1(O[Si](C)(C)CCCCNS(C)(=O)=O)n2c3c4ccccc4c2N=C2N=C(N=c4c5ccccc5c(n41)=NC1=NC(=N3)c3ccccc31)c1ccccc12 [Compound VIII, SiPc[OSi(CH3)2(CH2)4NHSO2CH3]2]
- Uptake Into V79 Cells, 1 μM ([1]; 18 hours): 0.1 ± 0.04 n Moles/10^6 cells
- Uptake Into V79 Cells, 4 μM ([1]; 18 hours): 0.8 ± 0.01 n Moles/10^6 cells
- n Moles/10^6 Cells/μM (composite uptake value) [1]: 0.2 n Moles/10^6 Cells/μM
- Maximum Effect (% survival at kj/m^2) ([2]; 1 μM, at 30 kj/m^2): 94% at 30
- induction of apoptosis (L5178Y cells; 1 μM at a fluence of 30 kJ/m^2): did not induce apoptosis
- Tumor Responses at 24 hours [3, 5]: slight
- Doubling Time of Initial Tumor Volume after PDT [3, 6]: 4 days

Molecule: CCN(CCC[Si](C)(C)O[Si]1(O)n2c3c4ccccc4c2N=C2N=C(N=c4c5ccccc5c(n41)=NC1=NC(=N3)c3ccccc31)c1ccccc12)CCN(C)C (stereo not drawn) [Compound X, HOSiPcOSi(CH3)2(CH2)3N(CH2CH3)(CH2)2N(CH3)2]
- Uptake Into V79 Cells, 1 μM ([1]; 18 hours): 0.6 ± 0.2 n Moles/10^6 cells
- Uptake Into V79 Cells, 4 μM ([1]; 18 hours): 3.3 ± 1.4 n Moles/10^6 cells
- n Moles/10^6 Cells/μM (composite uptake value) [1]: 0.7 n Moles/10^6 Cells/μM
- LD 90 (light dosage that kills 90% of cells) [2]: 7 kj/m^2
- Ld50 (fluence that reduces cell survival to 50%) [4]: 2.38 kJ/m^2
- Ld90 (fluence that reduces cell survival to 10%) [4]: 4.19 kJ/m^2
- activity relative to PcXII ([4]; from LD50/LD90 fluences): 44%
- normalized plating efficiency, AVG. ([4]; light dose 0 kJ/m^2): 100
- normalized plating efficiency, AVG. ([4]; light dose 2 kJ/m^2): 71.8
- normalized plating efficiency, AVG. ([4]; light dose 3 kJ/m^2): 30.1
- normalized plating efficiency, AVG. ([4]; light dose 4 kJ/m^2): 20.5
- normalized plating efficiency, AVG. ([4]; light dose 5 kJ/m^2): 0.43
- normalized plating efficiency, AVG. ([4]; light dose 6 kJ/m^2): 0.031
- normalized plating efficiency, AVG. ([4]; light dose 8 kJ/m^2): 0.00058
- Fluence, Minimum Demonstrated Condition to Induce Apoptosis (L5178Y cells; 0.5 μM): 6.0 kJ/m^2
- C × F Ld90, Minimum Demonstrated Condition to Induce Apoptosis (L5178Y cells; 0.5 μM): 3.0 kJ/m^2
- Fluence, Minimum Demonstrated Condition to Induce Apoptosis (L5178Y cells; 1.0 μM): 3.0 kJ/m^2
- C × F Ld90, Minimum Demonstrated Condition to Induce Apoptosis (L5178Y cells; 1.0 μM): 3.0 kJ/m^2

Molecule: CN1CCN(CCC[Si](C)(C)O[Si]2(O)n3c4c5ccccc5c3N=C3N=C(N=c5c6ccccc6c(n52)=NC2=NC(=N4)c4ccccc42)c2ccccc23)CC1 (stereo not drawn) [Compound XXVIII, HOSiPcOSi(CH3)2(CH2)3NC4H8NCH3]
- Uptake Into V79 Cells, 1 μM ([1]; 18 hours): 1.2 ± 0.2 n Moles/10^6 cells
- Uptake Into V79 Cells, 2 μM ([1]; 2 μM, 18 hours): 3.6 ± 1.0 n Moles/10^6 cells
- Uptake Into V79 Cells, 4 μM ([1]; 18 hours): 11.4 ± 0.05 n Moles/10^6 cells
- n Moles/10^6 Cells/μM (composite uptake value) [1]: 1.2* n Moles/10^6 Cells/μM
- LD 90 (light dosage that kills 90% of cells) [2]: 1.8 kj/m^2
- Fluence, Minimum Demonstrated Condition to Induce Apoptosis (L5178Y cells; 0.3 μM): 3.0 kJ/m^2
- C × F Ld90, Minimum Demonstrated Condition to Induce Apoptosis (L5178Y cells; 0.3 μM): 0.9 kJ/m^2
- Tumor Responses at 24 hours [3, 5]: complete
- Doubling Time of Initial Tumor Volume after PDT [3, 6]: 24 days

Molecule: chloroaluminum phthalocyanine tetrasulfonate [AlPcTS, reference compound]
- Tumor Responses at 24 hours [3, 7]: substantial
- Doubling Time of Initial Tumor Volume after PDT [3, 7]: 7 days
